Laboratory results reported in US20160376247A1, “NOVEL TEMPERATURE-SENSITIVE FLUORESCENT COMPOUND AND APPLICATION THEREOF” (SHANGHAI INSTITUTES FOR BIOLOGICAL SCIENCES, CHINESE …, priority 2013, published 2016).

How the values were obtained:
[1] = Temperature dependence of Stokes luminescence intensity of dye in solution; format: physicochemical; conditions: for temperature-sensitive properties of Stokes luminescence: 10 μM dye, emission spectra at different temperatures
Procedure: (§1) Concentration of dye is 10 μM, and solvent is 150 mM KCl solution, pH 7.5; (d) Stokes emission spectra (excited at 530 nm) of 10 μM RhBME (dissolved in 150 mM KCl solution at pH 7.5) at different temperatures (from bottom to top, 45, 35, 25, 15, 5[…] respectively), and Stokes luminescence intensity is normalized against peak at 25[…].

[2] = Temperature dependence of anti-Stokes luminescence intensity of dye in solution; format: physicochemical; conditions: 10 μM in 150 mM KCl pH 7.5, excited at 633 nm, 5-45 degrees
Procedure: as §1, with “anti-Stokes” for “Stokes”, “633” for “530”, “Rh101ME” for “RhBME”, “top” for “bottom”, “bottom,” for “top,”
From the spectrogram of Rh101 and derivatives thereof (FIG. 1a), it can be seen that there is no significant difference in spectroscopic characteristics between the compound of formula II (Rh101AM) or the compound of formula IV (Rh101ME) and Rh101.

[3] = literature [2, 3]; cited from earlier work
[4] = literature [2, 3]; cited from earlier work; remark: listed apart in the source

Compound	temperature-sensitive properties of Stokes luminescence [1]	Stokes luminescence intensity vs temperature [1]	other results
N#CC1=c2cc3c4c(c2Oc2c1cc1c5c2CCCN5CCC1)CCC[N+]=4CCC3 [Rh800]	does not possess temperature-sensitive properties at a wavelength of less than 700 nm		
O=C(O)c1ccccc1C1=c2cc3c4c(c2Oc2c1cc1c5c2CCCN5CCC1)CCC[N+]=4CCC3 [Rh101, rhodamine 101]	does not possess temperature-sensitive properties		anti-Stokes luminescence intensity vs temperature [2]: increases as the temperature increases; Anti-Stokes emission intensity vs temperature [3]: enhanced as the temperature increases
CCCCCCCCCCCCCCCCOC(=O)c1ccccc1-c1c2ccc(=[N+](CC)CC)cc-2oc2cc(N(CC)CC)ccc12 [RhB-C16]	possesses temperature-sensitive properties		
CCN(CC)c1ccc2c(-c3ccccc3C(=O)OC)c3ccc(N(CC)CC)cc3[o+]c2c1.[Cl-] [RhBME]		decreases as the temperature increases	
CCN(CC)c1ccc2c(-c3ccccc3C(=O)OCOC(C)=O)c3ccc(=[N+](CC)CC)cc-3oc2c1 [RhBAM]		decreases as the temperature increases	
tetramethylrhodamine methyl ester [TMRM]	possess temperature-sensitive properties		
CCN(CC)c1ccc2c(-c3ccccc3C(=O)OCc3ccc(C(=O)Nc4cc5cccnc5c5ncccc45)cc3)c3ccc(=[N+](CC)CC)cc-3oc2c1 [RPA, Rhodamine B-[(1,10-phenanthrolin-5-yl)aminocarbonyl]benzyl ester]	possess temperature-sensitive properties		
CCN(CC)c1ccc2c(-c3ccccc3C(=O)O)c3ccc(=[N+](CC)CC)cc-3oc2c1 [RhB, Rhodamine B]			Stokes emission intensity vs temperature [4]: decreased as the temperature increases
CC(=O)OCOC(=O)c1ccccc1C1=c2cc3c4c(c2Oc2c1cc1c5c2CCCN5CCC1)CCC[N+]=4CCC3 [Rh101AM]		does not substantially change as the temperature changes	
N=c1ccc2c(-c3ccccc3C(=O)O)c3ccc(N)cc3oc-2c1 [Rh110]	does not possess temperature-sensitive properties		
